According to patent US9475842B2, “Hexadepsipeptide analogues as anticancer compounds” (PIRAMAL ENTERPRISES LIMITED, priority 2012, dated 2016):

Tests used:
[1] = tested on: tumor protein 53 (p53) in HeLa cells; test: Protein expression by high content screening (Cellomics); type: cell-based, human; settings: for Fold activation with respect to control cells, P53: HeLa cells, after 3 hours
Protocol: (§1) Protein expressions of cyclin D, nuclear factor-kappa B (p65) [NFkB (p65)], ribosomal protein S6 (pS6), tumor protein 53 (p53), protein c-jun N-terminal kinase (pJNK), cleaved caspase 9, cleaved caspase 3 and cleaved poly(ADP-ribose) polymerase (PARP) was carried out in HeLa cells [referred to in step 1 of example 16] by Cellomics high content imaging. These primary antibodies were purchased from Santacruz Biotechnology, USA. Briefly 1×10^4 cells were seeded in 96 well tissue culture grade black plate with transparent bottom (Nunc, USA), and allowed to adhere for 24 h, and then replaced with fresh media, and cells were treated with 0.01 μM, 0.003 μM and 0.0003 μM concentrations of compound of Formula (1) [referred to in step 2 of example 16] and incubated for 1 h and 3 h respectively. After respective time point, cells were fixed with 3.7% formaldehyde (Sigma St. Louis, Mo.) for 10 minutes at RT, followed by permeabilization with 0.15% Triton X-100 (Sigma St. Louis, Mo.) for 10 minutes. Then the cells were blocked with 5% Bovine Serum Albumin for 2 hours. After blocking step, specific primary antibodies were added for 1 h, and primary antibodies of different protein were localized by secondary antibody labeled with Dylight548 (red) (Thermofisher, USA). Following secondary incubation, the nucleus was stained with Hoechst 3342 (blue) (Sigma, USA). Immunofluorescence was determined by scanning the plates on Cellomics Array Scan® VTI HCS Reader (Thermo-Fisher Scientific Inc., Waltham, Mass.). All the data points were analyzed using the Compartmental Analysis bio-algorithm of Cellomics and quantitative data were expressed as % activation in comparison to the untreated cells. 1000 cells were counted for each replicate well and the results were presented as an average±S.E.

[2] = tested on: ribosomal protein S6 (pS6) in HeLa cells; test: as above; type: cell-based, human; settings: for Fold down regulation with respect to control cells, pS6: HeLa cells, after 3 hours
Protocol: as §1

[3] = tested on: cyclin D in HeLa cells; test: as above; type: cell-based, human; settings: for Fold down regulation with respect to control cells, Cyclin D: HeLa cells, after 3 hours
Protocol: as §1

[4] = tested on: nuclear factor-kappa B (p65) [NFkB (p65)] in HeLa cells; test: as above; type: cell-based, human; settings: for Fold down regulation with respect to control cells, NFkB (p65): HeLa cells, after 3 hours
Protocol: as §1

[5] = tested on: protein c-jun N-terminal kinase (pJNK) in HeLa cells; test: as above; type: cell-based, human; settings: for Fold activation with respect to control cells, pJNK: HeLa cells, after 3 hours
Protocol: as §1

[6] = Solubility (physical properties); type: physicochemical
[7] = tested on: HeLa cancer cells; test: Detection of FITC Annexin V apoptosis by flow cytometry; type: cell-based, human; settings: for cells positive for annexin V staining (M2): HeLa cells, 12 hrs
Source text: The annexin V assay, a classical technique for detecting apoptosis, is the most commonly used method for detecting apoptosis by flow cytometry. One of the earliest features of apoptosis is the translocation of phosphatidylserine from the inner to the outer leaflet of the plasma membrane, thereby exposing phosphatidylserine to the external environment.
Annexin V (cat. no. 556420, BD Biosciences, USA) binds to phosphatidylserine exposed on the cell surface and identifies cells at an earlier stage of apoptosis. • a) HeLa cancer cells [referred to in step 1 of example 16] were seeded at a density of 0.5×10^6 cells/2000 μL well, in a tissue culture grade […] and allowed them to recover for 12 hrs in a humidified 5±0.2% CO2 incubator at 37±0.5° C. • b) After 12 hrs, 5 μL of 200× (200 times higher than required concentration is represented as 200×) compound of Formula (1a) dissolved in DMSO [step 2, example 16] was added to above tissue culture plate seeded with HeLa cancer cells. The final test concentration of the compound of Formula (1a) was 0.0003 μM, 0.003 μM and 0.01 μM. […] The population present in M1 and M2 were determined using FACS analysis.

## CC(C)CC1CCC(O)(C(C)(O)C(=O)NC2C(=O)N3NCCCC3C(=O)N(O)C(C)C(=O)NCC(=O)N3NCCCC3C(=O)N(O)C(C)C(=O)OC2C(C)C)OC1C (centres unmarked) [Formula (1a), N-(6,18-dihydroxy-22-isopropyl-7,19-dimethyl-5,8,11,17,20,24-hexaoxotetracosa hydrodipyridazino[6,1-f:6′,1′-o][1,4,7,10,13,16]oxapentaazacyclononadecin-23-yl)-2-hydroxy-2-(2-hydroxy-5-isobutyl-6-methyltetrahydro-2H-pyran-2-yl)propanamide]
[1]; 0.0003 μM
  Fold activation with respect to control cells, P53: −0.15 fold
[1]; 0.003 μM
  Fold activation with respect to control cells, P53: 0.55 fold
[1]; 0.01 μM
  Fold activation with respect to control cells, P53: 2.27 fold
[1]; cancer cells, conclusion
  effect on p53 expression (in words): up-regulates
[2]; 0.0003 μM
  Fold down regulation with respect to control cells, pS6: −0.42 fold
[2]; 0.003 μM
  Fold down regulation with respect to control cells, pS6: −0.56 fold
[2]; 0.01 μM
  Fold down regulation with respect to control cells, pS6: −1.97 fold
[2]; cancer cells, conclusion
  effect on pS6 protein expression (in words): significantly downregulates
[3]; 0.0003 μM
  Fold down regulation with respect to control cells, Cyclin D: −0.57 fold
[3]; 0.003 μM
  Fold down regulation with respect to control cells, Cyclin D: −0.89 fold
[3]; 0.01 μM
  Fold down regulation with respect to control cells, Cyclin D: −3.81 fold
[3]; cancer cells, conclusion
  effect on cyclin D protein expression (in words): significantly downregulates
[4]; 0.0003 μM
  Fold down regulation with respect to control cells, NFkB (p65): −0.46 fold
[4]; 0.003 μM
  Fold down regulation with respect to control cells, NFkB (p65): −0.80 fold
[4]; 0.01 μM
  Fold down regulation with respect to control cells, NFkB (p65): −1.86 fold
[4]; cancer cells, conclusion
  effect on NFkB (p65) protein expression (in words): significantly downregulates
[5]; 0.0003 μM
  Fold activation with respect to control cells, pJNK: 0.55 fold
[5]; 0.003 μM
  Fold activation with respect to control cells, pJNK: 0.85 fold
[5]; 0.01 μM
  Fold activation with respect to control cells, pJNK: 2.42 fold
[5]; cancer cells, conclusion
  effect on pJNK expression (in words): up-regulates
[6]; chloroform, ethyl acetate and methanol
  Solubility in organic solvents: Soluble in chloroform, ethyl acetate and methanol;
[6]; water
  Solubility in water: insoluble in water
[7]; HeLa cancer cells, conclusion
  induction of apoptosis (in words): induces cell death through apoptosis
[7]; 0.0003 μM
  cells positive for annexin V staining (M2): 33.80%
[7]; 0.003 μM
  cells positive for annexin V staining (M2): 40.27%
[7]; 0.01 μM
  cells positive for annexin V staining (M2): 59.05%
